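Dose response: 5 concentrations. Exposure: 48 h. Format: 96-well plates. Endpoint: linear interpolation; highest concentration if not reached. GI50 marks 50% less growth.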 The source made the active and inactive calls. Rule as the data show it: active = GI50 up to about 1.1 µM and inactive = higher.
Assays:
Experiment in all cases: growth of human tumour cells (NCI), 48 h
[1] = tested on: UACC-62
[2] = tested on: OVCAR-5
[3] = tested on: OVCAR-3
[4] = tested on: MDA-MB-231
[5] = tested on: HOP-92
[6] = tested on: IGROV-1
[7] = tested on: RPMI-8226
[8] = tested on: MOLT-4
[9] = tested on: A549
[10] = tested on: SNB-19
[11] = tested on: EKVX
[12] = tested on: LOX IMVI
[13] = tested on: HCT-116
[14] = tested on: PC-3
[15] = tested on: TK-10
[16] = tested on: MCF7
[17] = tested on: NCI-H226
[18] = tested on: HCC 2998
[19] = tested on: SR

Measured: GI50

C/C1=C/C2=CC(C)C[C@@H]2C(=O)[C@]2(C)C(=O)CC(C)(C)[C@H]2CC1=O (some centres not stated)
inactive: [1] > 50 µM | [2] > 50 µM | [3] > 50 µM | [4] > 50 µM | [5] > 50 µM | [6] > 50 µM | [7] 34.8 µM | [8] > 50 µM | [9] > 50 µM | [10] > 50 µM | [11] > 50 µM | [12] > 50 µM | [13] > 50 µM | [14] > 50 µM | [15] > 50 µM | [16] > 50 µM | [17] > 50 µM | [18] > 50 µM

Cc1c2c(C(N)=O)nccc2c(C)c2c1c1ccccc1n2Cc1ccccc1
inactive: [1] 60.4 µM | [2] 28.6 µM | [3] 3.97 µM | [4] 9.75 µM | [5] 4.93 µM | [6] 16.2 µM | [7] 26.8 µM | [8] 32.7 µM | [9] 14.8 µM | [10] 14.8 µM | [11] 43.6 µM | [12] 4.41 µM | [13] 10 µM | [14] 13 µM | [15] 15.9 µM | [16] 37 µM | [17] 23.7 µM | [18] 26.4 µM

CCOC(=O)Cc1nc2c(O)ncnc2n1C1OC(COC(C)=O)C(OC(C)=O)C1OC(C)=O (configuration not stated)
inactive: [1] > 100 µM | [2] > 100 µM | [3] > 100 µM | [4] > 100 µM | [5] > 100 µM | [6] > 100 µM | [7] > 100 µM | [8] > 100 µM | [9] > 100 µM | [10] > 100 µM | [11] > 100 µM | [12] > 100 µM | [13] > 100 µM | [14] > 100 µM | [15] > 100 µM | [16] > 100 µM | [17] > 100 µM | [18] > 100 µM

Cc1ccsc1/C=N/Nc1cnccn1
inactive: [1] > 100 µM | [2] 94 µM | [3] > 100 µM | [4] > 100 µM | [5] > 100 µM | [6] 40.1 µM | [7] > 100 µM | [8] 78.7 µM | [9] > 100 µM | [10] > 100 µM | [11] 63.5 µM | [12] 76.4 µM | [13] > 100 µM | [14] > 100 µM | [15] > 100 µM | [16] 3.53 µM | [17] > 100 µM | [18] > 100 µM

C[C@@H]1CC[C@@H]2[C@@H](C1)O[C@@H]([C@@H](C)OCc1ccccc1)SC2(C)C
inactive: [1] 19.3 µM | [2] 18.3 µM | [4] 21.5 µM | [6] 23.1 µM | [7] 16.5 µM | [8] 16.1 µM | [9] 29.9 µM | [10] 19 µM | [11] 31.8 µM | [12] 21.2 µM | [13] 18.3 µM | [14] 19.5 µM | [15] 21.7 µM | [19] 17.5 µM | [16] 18.7 µM | [17] 19.4 µM | [18] 17.9 µM

CC1=C(C(=S)Nc2ccc(Cl)c(C(=O)OC(C)C)c2)SCCO1
inactive: [1] 15.5 µM | [2] 34.6 µM | [3] 22.8 µM | [4] 18.2 µM | [5] 18.7 µM | [6] 16.6 µM | [7] 21.9 µM | [8] 15.7 µM | [9] 31 µM | [10] 16.7 µM | [11] 19.1 µM | [12] 15.5 µM | [13] 15.3 µM | [14] 16.9 µM | [15] 22.2 µM | [16] 32.1 µM | [17] 22.2 µM | [18] 14.7 µM

CC(=O)OCC1OC(n2c(N)c(C#N)c(-c3ccc(C)cc3)c(C#N)c2=S)C(OC(C)=O)C(OC(C)=O)C1OC(C)=O (configuration not stated)
inactive: [1] 43.5 µM | [2] 53.5 µM | [3] 31.3 µM | [4] 44.9 µM | [5] 15.2 µM | [6] 20.3 µM | [7] 29.2 µM | [9] 16 µM | [10] 18.8 µM | [11] 18.3 µM | [12] 32.7 µM | [13] 46.1 µM | [14] 31.8 µM | [15] 18.5 µM | [16] 20.1 µM | [17] 3.53 µM | [18] 16.9 µM

CC(O)(CCCCCl)c1nc2ccccc2s1 (configuration not stated)
inactive: [1] > 100 µM | [2] > 100 µM | [3] > 100 µM | [4] 96.4 µM | [6] > 100 µM | [7] 97.5 µM | [8] 50.7 µM | [9] > 100 µM | [10] > 100 µM | [11] 52.4 µM | [12] 48.4 µM | [13] 47 µM | [14] 34.9 µM | [15] > 100 µM | [19] 53 µM | [16] 71.8 µM | [17] > 100 µM

O=c1cc(CBr)c2ccc(O)cc2o1
inactive: [1] 55.3 µM | [2] 8.39 µM | [3] 32 µM | [4] > 100 µM | [6] 81.8 µM | [7] 38.5 µM | [8] 60 µM | [9] 92.5 µM | [10] 84.3 µM | [11] 21.7 µM | [12] > 100 µM | [13] > 100 µM | [14] 62.4 µM | [15] 88.5 µM | [19] 63 µM | [16] 69.7 µM | [17] 78 µM | [18] 76.6 µM

CCC(c1nc2ccccc2c(=O)n1NC(=O)C(C)(C)C)C1(O)CCCCC1 (configuration not stated)
inactive: [1] > 100 µM | [2] > 100 µM | [3] > 100 µM | [4] > 100 µM | [5] > 100 µM | [6] > 100 µM | [7] > 100 µM | [8] 80.4 µM | [9] > 100 µM | [10] > 100 µM | [11] > 100 µM | [13] > 100 µM | [14] > 100 µM | [19] > 100 µM | [16] > 100 µM | [17] > 100 µM

C=C(CCOC)CCC1CCCCC(CN(C)C)C1=O (configuration not stated)
inactive: [1] > 100 µM | [2] > 100 µM | [3] > 100 µM | [4] > 100 µM | [6] > 100 µM | [7] > 100 µM | [8] > 100 µM | [9] > 100 µM | [10] > 100 µM | [11] > 100 µM | [12] > 100 µM | [13] > 100 µM | [14] > 100 µM | [19] > 100 µM | [16] > 100 µM | [17] > 100 µM | [18] > 100 µM

Source: ChEMBL document CHEMBL1201862, “PubChem BioAssay data set” (2004)
